This data set can be described thus: Solubility test in water and FaSSIF. The class given is physicochemical. The note with it: 37° C., up to 24 hours.

5 molecules from patent US20220177511A1, “SERIES OF HALOGENATED TETRACYCLIC TRITERPENE DERIVATIVES AND THEIR PREPARATION AND APPLICATION” (SHANGHAI KING-X BIOTECH CO., LTD, priority 2019, published 2022) can be followed below.

The structures appear in SMILES notation. ≈ marks a conversion by molar mass, not a printed value. Where two headings read alike, the source gives them in different places.

In general, Solubility refers to how much of the substance goes into solution per volume.

`CC(C)(O)C1CCC(C)(C2C(O)CC3(C)C4CC(OC(=O)C5CCNCC5)C5C(C)(C)C(F)(F)CCC56CC46CCC23C)O1.Cl` [Compound 2-2, 4-((((2aR,3R,4S,5aS,5bS,7S,7aR,11aR,12aS)-9,9-difluoro-4-hydroxy-3-((2S,5S)-5-(2-hydroxypropan-2-yl)-2-methyltetrahydrofuran-2-yl)-2a,5a,8,8-tetramethyltetradecahydro-1H,12H-cyclopenta[a]cyclopropa[e]phenanthren-7-yl)oxy)carbonyl)piperidin-1-ium Chloride]: the Solubility by setting is: (FaSSIF (pH 6.5)) 1660 µg/mL; (Water) 880 µg/mL.
With `CC(C)(O)[C@@H]1CC[C@@](C)([C@H]2[C@@H](O)C[C@@]3(C)[C@@H]4C[C@H](OC(=O)[C@@H](N)CS)[C@H]5C(C)(C)C(F)(F)CC[C@@]56C[C@@]46CC[C@]23C)O1.Cl` [Compound 2-25, (R)-1-(((2aR,3R,4S,5aS,5bS,7S,7aR,11aR,12aS)-9,9-difluoro-4-hydroxy-3-((2S,5S)-5-(2-hydroxypropan-2-yl)-2-methyltetrahydrofuran-2-yl)-2a,5a,8,8-tetramethyltetradecahydro-1H,12H-cyclopenta[a]cyclopropa[e]phenanthren-7-yl)oxy)-3-mercapto-1-oxopropan-2-aminium Chloride], the Solubility (FaSSIF (pH 6.5)) is 3350 µg/mL and the Solubility (Water) amounted to 1020 µg/mL.
The molecule `Br.CC(C)(O)C1CCC(C)(C2C(O)CC3(C)C4CC(OC(=O)CNC(=O)C(N)CS)C5C(C)(C)C(F)(F)CCC56CC46CCC23C)O1` [Compound 2-32, (R)-1-((2-(((2aR,3R,4S,5aS,5bS,7S,7aR,11aR,12aS)-9,9-difluoro-4-hydroxy-3-((2S,5S)-5-(2-hydroxypropan-2-yl)-2-methyltetrahydrofuran-2-yl)-2a,5a,8,8-tetramethyltetradecahydro-1H,12H-cyclopenta[a]cyclopropa[e]phenanthren-7-yl)oxy)-2-oxoethyl)amino)-3-mercapto-1-oxopropan-2-aminium bromide] yielded a Solubility (FaSSIF (pH 6.5)) of 4960 µg/mL.
Take `CC(C)(O)[C@@H]1CC[C@@](C)([C@H]2[C@@H](O)C[C@@]3(C)[C@@H]4C[C@H](OC(=O)COCCOCCOCCO)[C@H]5C(C)(C)C(F)(F)CC[C@@]56C[C@@]46CC[C@]23C)O1` [Compound 2-13, (2aR,3R,4S,5aS,5bS,7S,7aR,11aR,12aS)-9,9-difluoro-4-hydroxy-3-((2S,5S)-5-(2-hydroxypropan-2-yl)-2-methyltetrahydrofuran-2-yl)-2a,5a,8,8-tetramethyltetradecahydro-1H,12H-cyclopenta[a]cyclopropa[e]phenanthren-7-yl-2-(2-(2-(2-hydroxyethoxy)ethoxy)ethoxy)acetate]: the Solubility (thermodynamic from solid, FaSSIF (pH 6.5), read-out: Solubility) turned out to be 1150 µg/mL (≈ 1640 µM) and the Solubility (thermodynamic from solid, Water, read-out: Solubility) worked out at 850 µg/mL (≈ 1210 µM).
`Br.CN(CC(=O)O[C@H]1C[C@@H]2[C@]3(CC[C@]4(C)[C@@H]([C@]5(C)CC[C@@H](C(C)(C)O)O5)[C@@H](O)C[C@@]24C)C[C@@]32CCC(F)(F)C(C)(C)[C@H]12)C(=O)[C@H](N)CC(=O)O` [Compound 2-33, (R)-3-carboxy-1-((2-(((2aR,3R,4S,5aS,5bS,7S,7aR,11aR,12aS)-9,9-difluoro-4-hydroxy-3-((2S,5S)-5-(2-hydroxypropan-2-yl)-2-methyltetrahydrofuran-2-yl)-2a,5a,8,8-tetramethyltetradecahydro-1H,12H-cyclopenta[a]cyclopropa[e]phenanthren-7-yl)oxy)-2-oxoethyl)(methyl)amino)-1-oxopropan-2-aminium bromide]: the Solubility by setting is: (FaSSIF (pH 6.5)) 6800 µg/mL; (Water) 2100 µg/mL.
